Source: patent publication US9777017B2, “Tricyclic fused thiophene derivatives as JAK inhibitors” (Incyte Corporation, priority 2012, dated 2017)

Assays:
Assay type in all cases: biochemical
human JAK1 [1] = assay: In vitro JAK kinase assay (HTRF, phosphorylation of a biotinylated peptide), JAK1; settings: ratio of IC50s, 1 mM ATP
How it was run: (§1)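 Baculovirus-expressed catalytic domains (JAK1 a.a. 837-1142, JAK2 a.a. 828-1132) phosphorylate 500 nM biotinylated peptide at 1 mM ATP, Tris pH 7.8, 1 h at room temperature. EDTA stop and HTRF detection with Eu-Py20/SA-APC; IC50 values derived.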

human JAK1 [2] = target: human JAK1 (Homo sapiens, UniProt P23458); assay: as above; settings: 1 mM ATP
How it was run: as §1

human JAK2 = human JAK2 (Homo sapiens (Human), UniProt O60674); assay: In vitro JAK kinase assay (HTRF, phosphorylation of a biotinylated peptide), JAK2; parameters: key to JAK2 IC50 (nM): +indicates an IC50 of ≦100 nM; ++indicates an IC50 of ≦1000 nM; +++indicates an IC50 of ≦2000 nM; ++++indicates an IC50 of >2000 nM; +++++indicates that the IC50 was greater than the highest concentration tested; settings: 1 mM ATP
How it was run: as §1

human JAK2, sequence (O60674 828-1132): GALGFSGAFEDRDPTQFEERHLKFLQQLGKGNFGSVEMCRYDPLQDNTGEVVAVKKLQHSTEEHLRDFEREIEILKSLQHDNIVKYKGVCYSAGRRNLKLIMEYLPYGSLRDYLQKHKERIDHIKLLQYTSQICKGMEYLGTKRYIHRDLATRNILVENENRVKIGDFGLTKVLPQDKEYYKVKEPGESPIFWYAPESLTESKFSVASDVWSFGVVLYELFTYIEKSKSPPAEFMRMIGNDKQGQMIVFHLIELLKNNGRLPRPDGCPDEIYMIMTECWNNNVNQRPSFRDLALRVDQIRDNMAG

Row | JAK2/JAK1 (human JAK1 [1]) | IC50 (human JAK1 [2]) [µM] | IC50 (human JAK2) [µM] | JAK2 IC50 (nM) (human JAK2) | Compound
1 | >10 | ≤ 0.1 | ≤ 2 |  | CC(C)OC(=O)NC[C@H]1CC[C@H](n2c([C@@H](C)O)nc3cnc4ccsc4c32)CO1 [Example 76, Isopropyl [((2R,5S)-5-{2-[(1R)-1-hydroxyethyl]-1H-imidazo[4,5-d]thieno[3,2-b]pyridin-1-yl}tetrahydro-2H-pyran-2-yl)methyl]carbamate]
2 | >10 | ≤ 0.1 | ≤ 1 |  | COC(=O)NC[C@H]1CC[C@H](n2c([C@@H](C)O)nc3cnc4ccsc4c32)CC1 [Example 78, Methyl [(trans-4-{2-[(1R)-1-hydroxyethyl]-1H-imidazo[4,5-d]thieno[3,2-b]pyridin-1-yl}cyclohexyl)methyl]carbamate]
3 | >10 | ≤ 0.1 | ≤ 2 |  | CC(=O)NC[C@H]1CC[C@H](n2c([C@@H](C)O)nc3cnc4ccsc4c32)CC1 [Example 79, N-[(trans-4-{2-[(1R)-1-Hydroxyethyl]-1H-imidazo[4,5-b]thieno[3,2-b]pyridin-1-yl}cyclohexyl)methyl]acetamide]
4 | >10 | ≤ 0.1 | ≤ 2 |  | C[C@@H](O)c1nc2cnc3ccsc3c2n1[C@H]1CC[C@H](CNS(C)(=O)=O)CC1 [Example 80, N-[(trans-4-{2-[(1R)-1-Hydroxyethyl]-1H-imidazo[4,5-d]thieno[3,2-b]pyridin-1-yl}cyclohexyl)methyl]methanesulfonamide]
5 | >10 | ≤ 0.1 | > 2 |  | C[C@@H](O)c1nc2cnc3ccsc3c2n1[C@H]1CC[C@H](CNC(=O)N(C)C)CC1 [Example 81, N′-[(trans-4-{2-[(1R)-1-Hydroxyethyl]-1H-imidazo[4,5-d]thieno[3,2-b]pyridin-1-yl}cyclohexyl)methyl]-N,N-dimethylurea]
6 | >10 | ≤ 0.1 | ≤ 1 |  | CCOC(=O)NC[C@H]1CC[C@H](n2c([C@@H](C)O)nc3cnc4ccsc4c32)CC1 [Example 82, Ethyl [(trans-4-{2-[(1R)-1-hydroxyethyl]-1H-imidazo[4,5-d]thieno[3,2-b]pyridin-1-yl}cyclohexyl)methyl]carbamate]
7 | >10 | ≤ 0.1 | ≤ 1 |  | CCCOC(=O)NC[C@H]1CC[C@H](n2c([C@@H](C)O)nc3cnc4ccsc4c32)CC1 [Example 83, Propyl [(trans-4-{2-[(1R)-1-hydroxyethyl]-1H-imidazo[4,5-d]thieno[3,2-b]pyridin-1-yl}cyclohexyl)methyl]carbamate]
8 | >10 | ≤ 0.1 | ≤ 1 |  | CC(C)OC(=O)NC[C@H]1CC[C@H](n2c([C@@H](C)O)nc3cnc4ccsc4c32)CC1 [Example 84, Isopropyl [(trans-4-{2-[(1R)-1-hydroxyethyl]-1H-imidazo[4,5-d]thieno[3,2-b]pyridin-1-yl}cyclohexyl)methyl]carbamate]
9 | >10 | ≤ 0.1 |  | +++++ | C[C@@H](O)c1nc2cnc3ccsc3c2n1[C@H]1CC[C@H](CNC(=O)OC2CCOC2)CC1 (stereo partly drawn) [Example 85, Tetrahydrofuran-3-yl [(trans-4-{2-[(1R)-1-hydroxyethyl]-1H-imidazo[4,5-d]thieno[3,2-b]pyridin-1-yl}cyclohexyl)methyl]carbamate]
10 | >10 | ≤ 0.1 | ≤ 1 |  | COC(=O)NC[C@H]1CC[C@H](n2c(CC#N)nc3cnc4ccsc4c32)CC1 [Example 86, Methyl ({trans-4-[2-(cyanomethyl)-1H-imidazo[4,5-d]thieno[3,2-b]pyridin-1-yl]cyclohexyl}methyl)carbamate]
11 | >10 | ≤ 0.1 | ≤ 1 |  | CCOC(=O)NC[C@H]1CC[C@H](n2c(CC#N)nc3cnc4ccsc4c32)CC1 [Example 87, Ethyl ({trans-4-[2-(cyanomethyl)-1H-imidazo[4,5-d]thieno[3,2-b]pyridin-1-yl]cyclohexyl}methyl)carbamate]
12 | >10 | ≤ 0.1 |  | +++++ | CC(C)OC(=O)NC[C@H]1CC[C@H](n2c(CC#N)nc3cnc4ccsc4c32)CC1 [Example 88, Isopropyl ({trans-4-[2-(cyanomethyl)-1H-imidazo[4,5-d]thieno[3,2-b]pyridin-1-yl]cyclohexyl}methyl)carbamate]
13 | >10 | ≤ 0.1 | > 2 |  | CCC(=O)NC[C@H]1CC[C@H](n2c(CC#N)nc3cnc4ccsc4c32)CC1 [Example 89, N-({trans-4-[2-(Cyanomethyl)-1H-imidazo[4,5-d]thieno[3,2-b]pyridin-1-yl]cyclohexyl}methyl)propanamide]
14 | >10 | ≤ 0.1 | ≤ 1 |  | N#CCc1nc2cnc3ccsc3c2n1[C@H]1CC[C@H](CC#N)CC1 [Example 90, {1-[trans-4-(Cyanomethyl)cyclohexyl]-1H-imidazo[4,5-d]thieno[3,2-b]pyridin-2-yl}acetonitrile]
15 | >10 | ≤ 0.1 | ≤ 1 |  | N#CC[C@H]1CC[C@H](n2c(CO)nc3cnc4ccsc4c32)CO1 [Example 91, {(2R,5S)-5-[2-(Hydroxymethyl)-1H-imidazo[4,5-b]thieno[3,2-b]pyridin-1-yl]tetrahydro-2H-pyran-2-yl}acetonitrile]

Row | Compound | JAK2/JAK1 (human JAK1 [1]) | IC50 (human JAK1 [2]) [µM] | IC50 (human JAK2) [µM] | JAK2 IC50 (nM) (human JAK2)
16 | ((1R,2R,4S)-2-Hydroxy-4-{2-[(1R)-1-hydroxyethyl]-1H-imidazo[4,5-d]thieno[3,2-b]pyridin-1-yl}cyclohexyl)acetonitrile and ((1S,2S,4R)-2-hydroxy-4-{2-[(1R)-1-hydroxyethyl]-1H-imidazo[4,5-d]thieno[3,2-b]pyridin-1-yl}cyclohexyl)acetonitrile [36 (first peak)] | >10 | ≤ 0.1 | > 2 | 
17 | ((1R,2R,4S)-2-Hydroxy-4-{2-[(1R)-1-hydroxyethyl]-1H-imidazo[4,5-d]thieno[3,2-b]pyridin-1-yl}cyclohexyl)acetonitrile and ((1S,2S,4R)-2-hydroxy-4-{2-[(1R)-1-hydroxyethyl]-1H-imidazo[4,5-d]thieno[3,2-b]pyridin-1-yl}cyclohexyl)acetonitrile [36 (second peak)] | >10 | ≤ 0.1 | ≤ 1 | 
18 | ((1R,2S,4S)-2-Hydroxy-4-{2-[(1R)-1-hydroxyethyl]-1H-imidazo[4,5-d]thieno[3,2-b]pyridin-1-yl}cyclohexyl)acetonitrile trifluoacetate and ((1S,2R,4R)-2-hydroxy-4-{2-[(1R)-1-hydroxyethyl]-1H-imidazo[4,5-d]thieno[3,2-b]pyridin-1-yl}cyclohexyl)acetonitrile trifluoacetate [37 (first peak)] | >10 | ≤ 1 |  | +++++
19 | ((1R,2S,4S)-2-Hydroxy-4-{2-[(1R)-1-hydroxyethyl]-1H-imidazo[4,5-d]thieno[3,2-b]pyridin-1-yl}cyclohexyl)acetonitrile trifluoacetate and ((1S,2R,4R)-2-hydroxy-4-{2-[(1R)-1-hydroxyethyl]-1H-imidazo[4,5-d]thieno[3,2-b]pyridin-1-yl}cyclohexyl)acetonitrile trifluoacetate [37 (second peak)] | >10 | ≤ 0.1 | ≤ 1 | 
20 | [(1R,2S,4S)-4-(2-Ethyl-1H-imidazo[4,5-d]thieno[3,2-b]pyridin-1-yl)-2-hydroxycyclohexyl]acetonitrile and [(1S,2R,4R)-4-(2-ethyl-1H-imidazo[4,5-d]thieno[3,2-b]pyridin-1-yl)-2-hydroxycyclohexyl]acetonitrile [40 (first peak)] | >10 | ≤ 0.1 | ≤ 1 | 
21 | [(1R,2S,4S)-4-(2-Methyl-1H-imidazo[4,5-d]thieno[3,2-b]pyridin-1-yl)-2-hydroxycyclohexyl]acetonitrile and [(1S,2R,4R)-4-(2-methyl-1H-imidazo[4,5-d]thieno[3,2-b]pyridin-1-yl)-2-hydroxycyclohexyl]acetonitrile [41 (first peak)] | >10 | ≤ 0.1 | ≤ 1 | 
